Results: patent US20260078130A1, “NAMPT MODULATORS, PREPARATIONS, AND USES THEREOF” (SIRONAX LTD., priority 2022, published 2026)

Key:
[1] = test system: endogenous NAMPT in U2OS cells; assay: Cellular NAD+ modulation assay (NAD/NADH-Glo, U2OS cells); type: cell-based; settings: Homo sapiens, 24 hours incubation with compound; for maximal fold induction: read-out: Cellular Emax
Procedure, shortened: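 NAD/NADH-Glo luminescence quantified NAD+ after acid treatment (60 °C, 15 min) and neutralization of DTAB lysates. Beforehand, U2OS cells seeded 16 h earlier received compound concentration series for 24 h at 37 °C. Values given as half-maximal activation concentration (EC50) and maximal fold change versus DMSO (Emax).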

[2] = target: T1, human enzyme NAMPT (full length) (Homo sapiens, UniProt P43490); assay: NMN fluorescence biochemical assay (stimulation of NMN synthesis by NAMPT); settings: for EC50: NMN synthesis by purified human NAMPT (100 nM), concentration giving half-maximal activation, read-out: Enzymatic EC50; for Enzymatic Emax: fold change of maximal activation compared to DMSO
T1 construct: human enzyme NAMPT (full length)
Procedure, shortened: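 Full-length human NAMPT (100 nM) was preincubated 15 min at 37 °C with compound in 50 mM Tris-HCl pH 7.5, 10 mM MgCl2, 2 mM DTT, then reacted 1 h at 37 °C with 50 μM NAM, 100 μM PRPP, 4 mM ATP (stated solution concentrations). NMN was derivatised with acetophenone/KOH then formic acid and read at Ex/Em 382/445 nm; EC50 and Emax (fold over DMSO) reported.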

T1 sequence (P43490 whole entry): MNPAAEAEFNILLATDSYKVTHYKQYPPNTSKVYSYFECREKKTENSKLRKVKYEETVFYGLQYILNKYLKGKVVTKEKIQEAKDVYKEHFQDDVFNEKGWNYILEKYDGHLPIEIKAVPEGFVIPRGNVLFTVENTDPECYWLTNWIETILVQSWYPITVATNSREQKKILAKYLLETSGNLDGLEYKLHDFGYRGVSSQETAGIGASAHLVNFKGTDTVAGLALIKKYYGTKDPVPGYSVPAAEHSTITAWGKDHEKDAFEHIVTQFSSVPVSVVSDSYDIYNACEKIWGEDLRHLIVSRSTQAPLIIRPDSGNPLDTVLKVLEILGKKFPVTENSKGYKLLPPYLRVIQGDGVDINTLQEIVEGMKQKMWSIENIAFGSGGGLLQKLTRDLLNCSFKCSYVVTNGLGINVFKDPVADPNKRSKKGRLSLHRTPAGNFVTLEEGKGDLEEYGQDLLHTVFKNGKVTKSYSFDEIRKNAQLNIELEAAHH

SMILES | EC50 [1] [nM] | EC50 [2] [nM] | Enzymatic Emax [2] | maximal fold induction [1]
Cc1ccccc1CC1c2ccccc2C(=O)N1Cc1ccc2[nH]c(=O)oc2c1 (stereo not drawn) [Compound 124, 6-((1-(2-methylbenzyl)-3-oxoisoindolin-2-yl)methyl)benzo[d]oxazol-2(3H)-one] | 500 to 5000 | < 500 | A (A>3) | > 1.5
CC1c2cc(C3CC3)ccc2C(=O)N1Cc1ccc2[nH]c(=O)oc2c1 (stereo not drawn) [Compound 125, 6-((5-cyclopropyl-3-methyl-1-oxoisoindolin-2-yl)methyl)benzo[d]oxazol-2(3H)-one] | 500 to 5000 | ≥ 5000 | A (A>3) | > 1.5
COC1CN(c2ccc3c(c2)C(C)N(Cc2ccc4[nH]c(=O)oc4c2)C3=O)C1 (stereo not drawn) [Compound 128, 6-((5-(3-methoxyazetidin-1-yl)-3-methyl-1-oxoisoindolin-2-yl)methyl)benzo[d]oxazol-2(3H)-one] | 500 to 5000 | ≥ 5000 | B (3≥B>2) | > 1.5
O=C1c2ccccc2C(Cc2ccccn2)N1Cc1ccc2[nH]c(=O)oc2c1 (stereo not drawn) [Compound 129, 6-((1-oxo-3-(pyridin-2-ylmethyl)isoindolin-2-yl)methyl)benzo[d]oxazol-2(3H)-one] | 500 to 5000 | 500 to 5000 | A (A>3) | > 1.5
O=C1c2ccccc2C(Cc2ccncc2)N1Cc1ccc2[nH]c(=O)oc2c1 (stereo not drawn) [Compound 130, 6-((1-oxo-3-(pyridin-4-ylmethyl)isoindolin-2-yl)methyl)benzo[d]oxazol-2(3H)-one] | 500 to 5000 | ≥ 5000 | B (3≥B>2) | > 1.5
N#Cc1cccc(CC2c3ccccc3C(=O)N2Cc2ccc3[nH]c(=O)oc3c2)c1 (stereo not drawn) [Compound 131, 3-((3-oxo-2-((2-oxo-2,3-dihydrobenzo[d]oxazol-6-yl)methyl)isoindolin-1-yl)methyl) benzonitrile] | 500 to 5000 | 500 to 5000 | A (A>3) | > 1.5
O=C1c2ccccc2C(Cc2ccccc2C(F)(F)F)N1Cc1ccc2[nH]c(=O)oc2c1 (stereo not drawn) [Compound 134, 6-((1-oxo-3-(2-(trifluoromethyl)benzyl)isoindolin-2-yl)methyl)benzo[d]oxazol-2(3H)-one] | 500 to 5000 | < 500 | A (A>3) | > 1.5
O=C1c2ccccc2C(Cc2cccnc2)N1Cc1ccc2[nH]c(=O)oc2c1 (stereo not drawn) [Compound 137, 6-((1-oxo-3-(pyridin-3-ylmethyl)isoindolin-2-yl)methyl)benzo[d]oxazol-2(3H)-one] | < 500 | 500 to 5000 | B (3≥B>2) | > 1.5
O=C1c2ccccc2C(Cc2nccs2)N1Cc1ccc2[nH]c(=O)oc2c1 (stereo not drawn) [Compound 140, 6-((1-oxo-3-(thiazol-2-ylmethyl)isoindolin-2-yl)methyl) benzo[d]oxazol-2(3H)-one] | 500 to 5000 | ≥ 5000 | A (A>3) | > 1.5
O=c1[nH]c2ccc(Cn3c(=O)c4ccccc4n3Cc3ccccc3C(F)(F)F)cc2o1 [Compound 141, 6-((3-oxo-1-(2-(trifluoromethyl)benzyl)-1,3-dihydro-2H-indazol-2-yl)methyl)benzo[d]oxazol-2(3H)-one] | 500 to 5000 | 500 to 5000 | B (3≥B>2) | > 1.5
COc1ccccc1CC1c2ccccc2C(=O)N1Cc1ccc2[nH]c(=O)oc2c1 (stereo not drawn) [Compound 142, 6-((1-(2-methoxybenzyl)-3-oxoisoindolin-2-yl)methyl)benzo[d]oxazol-2(3H)-one] | 500 to 5000 | < 500 | B (3≥B>2) | > 1.5
CC1c2cc(CN3CCOCC3)ccc2C(=O)N1Cc1ccc2[nH]c(=O)oc2c1 (stereo not drawn) [Compound 143, 6-((3-methyl-5-(morpholinomethyl)-1-oxoisoindolin-2-yl)methyl)benzo[d]oxazol-2(3H)-one] | 500 to 5000 | ≥ 5000 | A (A>3) | > 1.5
O=C1c2ccccc2C(Cc2ccccc2F)N1Cc1ccc2[nH]c(=O)oc2c1 (stereo not drawn) [Compound 146, 6-((1-(2-fluorobenzyl)-3-oxoisoindolin-2-yl)methyl)benzo[d]oxazol-2(3H)-one] | < 500 | < 500 | A (A>3) | > 1.5
N#Cc1ccccc1CC1c2ccccc2C(=O)N1Cc1ccc2[nH]c(=O)oc2c1 (stereo not drawn) [Compound 147, 2-((3-oxo-2-((2-oxo-2,3-dihydrobenzo[d]oxazol-6-yl)methyl)isoindolin-1-yl)methyl) benzonitrile] | < 500 | < 500 | A (A>3) | > 1.5
N#Cc1ccc(CC2c3ccccc3C(=O)N2Cc2ccc3[nH]c(=O)oc3c2)cc1 (stereo not drawn) [Compound 148, 4-((3-oxo-2-((2-oxo-2,3-dihydrobenzo[d]oxazol-6-yl)methyl)isoindolin-1-yl)methyl) benzonitrile] | 500 to 5000 | 500 to 5000 | B (3≥B>2) | > 1.5
CC1c2cc(NC3CC4(COC4)C3)ccc2C(=O)N1Cc1ccc2[nH]c(=O)oc2c1 (stereo not drawn) [Compound 149, 6-((5-((2-oxaspiro[3.3]heptan-6-yl)amino)-3-methyl-1-oxoisoindolin-2-yl)methyl)benzo[d]oxazol-2(3H)-one] | 500 to 5000 | 500 to 5000 | B (3≥B>2) | > 1.5
O=C1c2ccccc2C(Cc2ncco2)N1Cc1ccc2[nH]c(=O)oc2c1 (stereo not drawn) [Compound 150, 6-((1-(oxazol-2-ylmethyl)-3-oxoisoindolin-2-yl)methyl)benzo[d]oxazol-2(3H)-one] | 5000 to 50000 | ≥ 5000 | A (A>3) | > 1.5
Cc1ccccc1CC1c2ncccc2C(=O)N1Cc1ccc2[nH]c(=O)oc2c1 (stereo not drawn) [Compound 151, 6-((7-(2-methylbenzyl)-5-oxo-5,7-dihydro-6H-pyrrolo[3,4-b]pyridin-6-yl)methyl)benzo[d]oxazol-2(3H)-one] | 500 to 5000 | ≥ 5000 | A (A>3) | > 1.5

Now from value to compound, other results behind:

EC50 [1] [nM] | EC50 [2] [nM] | Enzymatic Emax [2] | SMILES | maximal fold induction [1]
500 to 5000 | ≥ 5000 | A (A>3) | Cc1ccnc(CC2c3ccccc3C(=O)N2Cc2ccc3[nH]c(=O)oc3c2)c1 (stereo not drawn) [Compound 156, 6-((1-((4-methylpyridin-2-yl)methyl)-3-oxoisoindolin-2-yl)methyl)benzo[d]oxazol-2(3H)-one] | > 1.5
500 to 5000 | < 500 | A (A>3) | O=C1c2ccccc2C(Cc2ccccc2Cl)N1Cc1ccc2[nH]c(=O)oc2c1 (stereo not drawn) [Compound 157, 6-((1-(2-chlorobenzyl)-3-oxoisoindolin-2-yl)methyl)benzo[d]oxazol-2(3H)-one] | > 1.5
500 to 5000 | ≥ 5000 | A (A>3) | Cc1cccc(CC2c3ccccc3C(=O)N2Cc2ccc3[nH]c(=O)oc3c2)n1 (stereo not drawn) [Compound 158, 6-((1-((6-methylpyridin-2-yl)methyl)-3-oxoisoindolin-2-yl)methyl)benzo[d]oxazol-2(3H)-one] | > 1.5
< 500 | < 500 | A (A>3) | O=C1c2ccccc2C(Cc2ncccc2Cl)N1Cc1ccc2[nH]c(=O)oc2c1 (stereo not drawn) [Compound 159, 6-((1-((3-chloropyridin-2-yl)methyl)-3-oxoisoindolin-2-yl)methyl)benzo[d]oxazol-2(3H)-one] | > 1.5
500 to 5000 | 500 to 5000 | B (3≥B>2) | Cc1ccccc1CC1c2cccnc2C(=O)N1Cc1ccc2[nH]c(=O)oc2c1 (stereo not drawn) [Compound 160, 6-((5-(2-methylbenzyl)-7-oxo-5,7-dihydro-6H-pyrrolo[3,4-b]pyridin-6-yl)methyl)benzo[d]oxazol-2(3H)-one] | > 1.5
500 to 5000 | 500 to 5000 | A (A>3) | Cc1ccc(CC2c3ccccc3C(=O)N2Cc2ccc3[nH]c(=O)oc3c2)nc1 (stereo not drawn) [Compound 161, 6-((1-((5-methylpyridin-2-yl)methyl)-3-oxoisoindolin-2-yl)methyl)benzo[d]oxazol-2(3H)-one] | > 1.5
< 500 | < 500 | B (3≥B>2) | Cc1ccc(C#N)c(CC2c3ccccc3C(=O)N2Cc2ccc3[nH]c(=O)oc3c2)c1 (stereo not drawn) [Compound 164, 4-methyl-2-((3-oxo-2-((2-oxo-2,3-dihydrobenzo[d]oxazol-6-yl)methyl)isoindolin-1-yl)methyl)benzonitrile] | > 1.5
500 to 5000 | 500 to 5000 | B (3≥B>2) | CCOc1ccccc1CC1c2ccccc2C(=O)N1Cc1ccc2[nH]c(=O)oc2c1 (stereo not drawn) [Compound 166, 6-((1-(2-ethoxybenzyl)-3-oxoisoindolin-2-yl)methyl)benzo[d]oxazol-2(3H)-one] | 1.2 to 1.5
500 to 5000 | 500 to 5000 | B (3≥B>2) | O=C1c2ccccc2C(CC2CCCCC2)N1Cc1ccc2[nH]c(=O)oc2c1 (stereo not drawn) [Compound 167, 6-((1-(cyclohexylmethyl)-3-oxoisoindolin-2-yl)methyl)benzo[d]oxazol-2(3H)-one] | 1.2 to 1.5
